For this assay, the system named is P388 leukemia ip, CD2F1 mice, survival T/C. Put plainly: NCI In Vivo Anticancer Drug Screen. Data for tumor model P388 Leukemia (intraperitoneal) in CD2F1 (CDF1) mice. As to conditions: endpoint: median survival time, higher = longer survival. The procedure, abridged: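 Mice carrying the transplanted tumor received test compound or vehicle. Survival was recorded in each group, and the value is the treated-group measurement divided by that of the vehicle-treated control group.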

Where [1] appears, read: dose: 50.0 mg/kg/injection, schedule: Q01DX005 (ip), vehicle: Klucel (hydroxypropylcellulose) (HPC).
Setting [2] is: dose: 60.0 mg/kg/injection, schedule: Q01DX005 (ip), vehicle: saline with Tween-80.
Setting [3] is: dose: 120.0 mg/kg/injection, schedule: Q01DX005 (ip), vehicle: saline with Tween-80.
Where [4] appears, read: dose: 240.0 mg/kg/injection, schedule: Q01DX005 (ip), vehicle: saline with Tween-80.
[5] abbreviates: dose: 50.0 mg/kg/injection, schedule: Q01DX009 (ip), vehicle: saline with Tween-80.
[6] abbreviates: dose: 100.0 mg/kg/injection, schedule: Q01DX009 (ip), vehicle: saline with Tween-80.
Setting [7] is: dose: 200.0 mg/kg/injection, schedule: Q01DX009 (ip), vehicle: saline with Tween-80.
Setting [8] is: dose: 50.0 mg/kg/injection, schedule: Q01DX009 (ip), vehicle: saline.
Where [9] appears, read: dose: 100.0 mg/kg/injection, schedule: Q01DX009 (ip), vehicle: saline.
The mark [10] stands for this setting: dose: 200.0 mg/kg/injection, schedule: Q01DX009 (ip), vehicle: saline.

Values joined by “and” are separate entries in the source; they are usually repeats but may differ in a detail not shown here. Equal values may be shown once. Inconclusive results and toxic doses are left out.

Take `Cc1[nH]ccc2c(C)c3nc4ccc(O)cc4c3cc12`: the T/C (dose: 40.0 mg/kg/injection, schedule: Q04DX002 (ip), vehicle: water) is 157 % of control.

On to `CC1=N/C(=C\c2ccc(Br)cc2)C(=O)O1`, for which the T/C reads like this: under setting [1], 109 % of control; (dose: 100.0 mg/kg/injection, schedule: Q01DX005 (ip), vehicle: Klucel (hydroxypropylcellulose) (HPC)) 98 % of control; (dose: 200.0 mg/kg/injection, schedule: Q01DX005 (ip), vehicle: Klucel (hydroxypropylcellulose) (HPC)) 112 % of control.

In the case of `CN1CCN(C)C(N2CCOCC2)C(C)(C)C1` (centres undefined), the T/C is 93 % of control (dose: 50.0 mg/kg/injection, schedule: Q01DX005 (ip), vehicle: saline); 94 % of control (dose: 100.0 mg/kg/injection, schedule: Q01DX005 (ip), vehicle: saline); 95 % of control (dose: 200.0 mg/kg/injection, schedule: Q01DX005 (ip), vehicle: saline).

Regarding `CS(=O)CC(Nc1ccccc1)c1ccccc1` (centres undefined), the T/C is 108 % of control (dose: 60.0 mg/kg/injection, schedule: Q01DX005 (ip), vehicle: Klucel (hydroxypropylcellulose) (HPC)); 95 % of control (dose: 120.0 mg/kg/injection, schedule: Q01DX005 (ip), vehicle: Klucel (hydroxypropylcellulose) (HPC)); 87 % of control (dose: 240.0 mg/kg/injection, schedule: Q01DX005 (ip), vehicle: Klucel (hydroxypropylcellulose) (HPC)).

Regarding `OCc1cc2ccc3ccccc3c2[nH]1`, the T/C was 96 % of control under setting [2], 89 % of control under setting [3] and 91 % of control under setting [4].

For `C=C[C@]1(C)C=C2C(O)CC3C(C)(C)CCC[C@]3(CO)C2CC1` (some centres undefined), the T/C was 100 % of control under setting [2], 97 % of control under setting [3] and 96 % of control under setting [4].

With `Cc1c(-c2ccccc2)n(O)c(-c2ccc([N+](=O)[O-])cc2)[n+]1[O-]`, the T/C under setting [5] was 99 % of control, the T/C under setting [6] was 94 % of control and the T/C under setting [7] is 94 % of control.

With `CCOC(=O)c1nc(Cl)nc(Cl)c1I`, the T/C was 99 % of control (dose: 3.13 mg/kg/injection, schedule: Q01DX009 (ip), vehicle: distilled water + Tween-80); 110 % of control (dose: 6.25 mg/kg/injection, schedule: Q01DX009 (ip), vehicle: distilled water + Tween-80); 112 % of control and 123 % of control (dose: 12.5 mg/kg/injection, schedule: Q01DX009 (ip), vehicle: distilled water + Tween-80); 101 % of control and 112 % of control (dose: 25.0 mg/kg/injection, schedule: Q01DX009 (ip), vehicle: distilled water + Tween-80); 90 % of control (dose: 50.0 mg/kg/injection, schedule: Q01DX009 (ip), vehicle: distilled water + Tween-80).

For the molecule `O=C1c2ccccc2-c2ccc(N=Cc3c[nH]c4ccccc34)cc21`, the T/C by setting is: (dose: 50.0 mg/kg/injection, schedule: Q01DX005 (ip), vehicle: saline + Tween-80 + alcohol) 104 % of control; (dose: 100.0 mg/kg/injection, schedule: Q01DX005 (ip), vehicle: saline + Tween-80 + alcohol) 98 % of control; (dose: 200.0 mg/kg/injection, schedule: Q01DX005 (ip), vehicle: saline + Tween-80 + alcohol) 98 % of control.

As to `CS(=O)(=O)C(=C1C(=O)NC(=O)NC1=O)S(C)(=O)=O`, the T/C runs as follows: (dose: 12.5 mg/kg/injection, schedule: Q01DX005 (ip), vehicle: Klucel (hydroxypropylcellulose) (HPC)) 98 % of control; (dose: 25.0 mg/kg/injection, schedule: Q01DX005 (ip), vehicle: Klucel (hydroxypropylcellulose) (HPC)) 100 % of control; under setting [1], 107 % of control and 109 % of control.

Regarding `CCCCCCCCCCCCCCC[N+]1([O-])CCOCC1`, the T/C reads like this: under setting [8], 90 % of control; under setting [9], 91 % of control.

Turning to `Cc1ccc(S(=O)(=O)NC(=O)C#CCOC2CCCCO2)cc1` (centres undefined), the T/C reads like this: (dose: 50.0 mg/kg/injection, schedule: Q01DX005 (ip), vehicle: saline with Tween-80) 103 % of control and 122 % of control; (dose: 100.0 mg/kg/injection, schedule: Q01DX005 (ip), vehicle: saline with Tween-80) 111 % of control and 112 % of control; (dose: 200.0 mg/kg/injection, schedule: Q01DX005 (ip), vehicle: saline with Tween-80) 112 % of control and 123 % of control.

On to `COc1cc2c(cc1O)CCCC(C)(C)C2=O`, for which the T/C was 95 % of control under setting [6] and 96 % of control under setting [7].

In the case of `N#C[C@H](OC1OC(COC2OC(CO)C(O)C(O)C2O)C(O)C(O)C1O)c1ccccc1` (some centres undefined), the T/C by setting is: (dose: 6.25 mg/kg/injection, schedule: Q01DX009 (oral), vehicle: water) 91 % of control; (dose: 12.5 mg/kg/injection, schedule: Q01DX009 (oral), vehicle: saline) 98 % of control; (dose: 12.5 mg/kg/injection, schedule: Q01DX009 (oral), vehicle: water) 95 % of control; (dose: 25.0 mg/kg/injection, schedule: Q01DX009 (ip), vehicle: saline) 100 % of control; (dose: 25.0 mg/kg/injection, schedule: Q01DX009 (ip), vehicle: water) 105 % of control; (dose: 25.0 mg/kg/injection, schedule: Q01DX009 (oral), vehicle: saline) 115 % of control. Further, the T/C runs as follows: (dose: 25.0 mg/kg/injection, schedule: Q01DX009 (oral), vehicle: water) 93 % of control; under setting [8], 100 % of control and 112 % of control; (dose: 50.0 mg/kg/injection, schedule: Q01DX009 (ip), vehicle: water) 97 % of control; (dose: 50.0 mg/kg/injection, schedule: Q01DX009 (oral), vehicle: saline) 118 % of control; (dose: 50.0 mg/kg/injection, schedule: Q01DX009 (oral), vehicle: suspension in saline) 104 % of control; (dose: 50.0 mg/kg/injection, schedule: Q01DX009 (oral), vehicle: water) 96 % of control. Also, the T/C by setting is: under setting [9], 104 % of control and 107 % of control; (dose: 100.0 mg/kg/injection, schedule: Q01DX009 (ip), vehicle: water) 100 % of control; (dose: 100.0 mg/kg/injection, schedule: Q01DX009 (oral), vehicle: saline) 101 % of control; (dose: 100.0 mg/kg/injection, schedule: Q01DX009 (oral), vehicle: suspension in saline) 100 % of control and 107 % of control; (dose: 100.0 mg/kg/injection, schedule: Q01DX009 (oral), vehicle: water) 105 % of control and 93 % of control; under setting [10], 100 % of control and 109 % of control. Besides, the T/C runs as follows: (dose: 200.0 mg/kg/injection, schedule: Q01DX009 (ip), vehicle: water) 101 % of control; (dose: 200.0 mg/kg/injection, schedule: Q01DX009 (oral), vehicle: saline) 100 % of control; (dose: 200.0 mg/kg/injection, schedule: Q01DX009 (oral), vehicle: water) 102 % of control and 104 % of control; (dose: 400.0 mg/kg/injection, schedule: Q01DX009 (ip), vehicle: saline) 102 % of control and 109 % of control; (dose: 400.0 mg/kg/injection, schedule: Q01DX009 (ip), vehicle: water) 100 % of control; (dose: 400.0 mg/kg/injection, schedule: Q01DX009 (oral), vehicle: suspension in saline) 100 % of control. Further, the T/C runs as follows: (dose: 800.0 mg/kg/injection, schedule: Q01DX009 (ip), vehicle: saline) 102 % of control and 108 % of control; (dose: 800.0 mg/kg/injection, schedule: Q01DX009 (ip), vehicle: water) 102 % of control.

On to `CCC(c1ccccc1)C(C#N)c1ccccc1` (centres undefined), for which the T/C is, setting by setting: (dose: 25.0 mg/kg/injection, schedule: Q01DX009 (ip), vehicle: saline with Tween-80) 95 % of control; under setting [5], 95 % of control; under setting [6], 94 % of control; under setting [7], 90 % of control.

Take `NC(Cc1ccc(OC(c2ccccc2)(c2ccccc2)c2ccccc2)cc1)C(=O)O` (centres undefined): the T/C is 101 % of control under setting [8], 96 % of control under setting [9] and 90 % of control under setting [10].

For `C=C1C(=O)OC2C1CCC1(C)CC(Br)C(=O)C(C)C21` (centres undefined), the T/C by setting is: (dose: 50.0 mg/kg/injection, schedule: Q04DX002 (ip), vehicle: saline with Tween-80) 104 % of control and 108 % of control and 95 % of control; (dose: 100.0 mg/kg/injection, schedule: Q04DX002 (ip), vehicle: saline with Tween-80) 100 % of control and 111 % of control and 112 % of control; (dose: 200.0 mg/kg/injection, schedule: Q04DX002 (ip), vehicle: saline with Tween-80) 106 % of control and 108 % of control; (dose: 400.0 mg/kg/injection, schedule: Q04DX002 (ip), vehicle: saline with Tween-80) 104 % of control.

The record behind these values is PubChem BioAssay AID330 (DTP/NCI, 2004).
